Results on 1 compound are retold here after US10278971B2, “Fluorocyclopentenylcytosine methods of use” (Rexahn Pharmaceuticals, Inc., priority 2015, dated 2019).

In one series the test system is MC38 murine colon cancer. In words: Syngeneic MC38 murine colon cancer model, tumor growth. In kind it is in vivo. As to the method:
Following the protocol described below, the effect of RX-3117 on tumor growth in a syngeneic model using female C57BL/6 mice with MC38 murine colon cancer was examined. Tumor growth was measured in a treatment group compared to a control (vehicle treated) group (see Table 1 below for dosing scheme and treatment regimen).
Briefly, the method is described as follows. The cells were harvested during exponential growth and re-suspended with phosphate buffered saline. Each test animal received a subcutaneous (s.c.) injection of 1×10^6 tumor cells into the right flank and tumor growth was monitored as the average tumor size approaches the target range of 60-100 mm^3. Dosing, based on Table 1 started as each animal reached this target range.
Tumors were measured in two dimensions using calipers, and volume calculated using the formula:
[…] The MTV (n), the median tumor volume for the number of animals, n, on Day 45, was determined for each group. Percent tumor growth inhibition (% TGI) is defined as the difference between the MTV of the designated control group (vehicle administration) and the MTV of the drug-treated group, expressed as a percentage of the MTV of the control group:
The data set for TGI analysis includes all animals in a group, except those that died due to treatment-related (TR) or non-treatment-related (NTR) causes. An agent that produces at least 60% TGI in this assay is considered to be potentially therapeutically active.
Treatment efficacy was determined from the number of regression responses. Treatment may cause partial regression (PR) or complete regression (CR) of the tumor in an animal. In a PR response, the tumor volume is 50% or less of its D1 volume for three consecutive measurements during the course of the study, and equal to or greater than 13.5 mm^3 for one or more of these three measurements. In a CR response, the tumor volume is less than 13.5 mm^3 for three consecutive measurements during the course of the study. Any animal with a CR response on the last day of the study was additionally classified as a tumor-free-survivor.
For toxicity assessments, animals were weighed daily for the first five days of the study and twice weekly thereafter. The mice were observed frequently for overt signs of any adverse, treatment-related side effects, and clinical signs of toxicity are recorded when observed.
Acceptable toxicity is defined as a group mean body-weight loss of less than 20% during the study and not more than one treatment-related (TR) death among ten treated animals. Any dosing regimen resulting in greater toxicity is considered above the maximum tolerated dose (MTD). […]

A short description of series [1]: First-in-human study: pharmacokinetics, safety and tolerability. In kind it is in vivo. Conditions: for Cmax / Tmax / half-life / bioavailability: both sexes, human, plasma; for bioavailability: n=3, read-out: absolute bioavailability (F). How it is done:
In a first-in-human, open-label, exploratory study, the pharmacokinetics, safety and tolerability of RX-3117 were evaluated. The study duration was 14-15 days (7-day screening period; 3-day treatment period; 4 (+1)-day safety follow-up period). Nine adult male and female subjects with histologically confirmed, solid tumors enrolled in and completed the study. The subjects received RX-3117 (n=3 subjects per dose) as a single oral dose (50 mg or 100 mg) or a single intravenous dose (20 mg).

Another series relates to DNMT1 mRNA. In words: DNMT1 RNA expression by real-time PCR. In kind it is cell-based, human. How it is done:
(§1) DNMT1 protein expression was measured by Western Blotting after exposure to RX-3117 for 24 or 48 hr. DNMT1 RNA expression was measured by real-time PCR after 24 and 48 hr exposure to RX-3117. DNMT enzyme activity was measured in isolated nuclei after exposure 1 μM RX-3117 or 5 μM aza-CdR using a DNA methyltransferase assay kit provided by EpiGentek using the ability of a CpG dinding domain to bind to methylated DNA. In A549 cells the effect of 5 μM RX-3117 on overall methylation was measured with a specific antibody against 5-methyl-cytosine. Bands on Western blots were visualized using appropriate InfraRedDye using an Odyssey InfraRed imager.

Series [2] has as its system overall methylation of DNA. The series can be described thus: Overall methylation of DNA with antibody against 5-methyl-cytosine. In kind it is cell-based, human. Conditions: A549, 5 μM, 48 hr exposure. As to the method:
as §1

Series [3] relates to A2780 ovarian cancer cells and NSCLC cell lines. The series can be described thus: Radiosensitizing effect, summary over cell lines. In kind it is cell-based, human. The following applies: preincubation, pulse and fractionated irradiation. How it is done: Exponential growing A2780, SW1573, A549, H460 and SW1573/G-cells were exposed to 1 μM RX-3117 or untreated (control) for 24 h and irradiated with single doses γ-radiation (0-6 Gy) using a ^60Co source (Gammacell 200, Atomic Energy of Canada, Ltd). Subsequently, 500 cells/T25 flasks were plated and allowed to form colonies. After ten days colonies were fixed with 100% ethanol and stained with 10% Giemsa stain solution (Merck Chemicals BV, Amsterdam, the Netherlands) for colonies counting. Plating efficiency (PE) was calculated by dividing the number of colonies formed through the number of cells plated and normalized for cytotoxicity induced by control. To illustrate the effect of RX-3117 on radiation, dose modifying factor (DMF) was calculated as described earlier (Bijnsdorp I V, van den Berg J, Kuipers G K, Wedekind L E, Slotman B J, van Rijn J, Lafleur M V M and Sminia P: Radiosensitizing potential of the selective cyclooygenase-2 (COX-2) inhibitor meloxicam on human glioma cells. J Neurooncol 85: 25-31, 2007).

Setting [4] is: Day 45, N=10 per group, same regimens.

Read-outs that look alike come from different tables or passages of the source.

For the compound `Nc1ccn([C@@H]2C(F)=C(CO)[C@@H](O)[C@H]2O)c(=O)n1` [RX-3117, 4-amino-1-((1S,4R,5S)-2-fluoro-4,5-dihydroxy-3-hydroxymethyl-cyclopent-2-enyl)-1H-pyrimidin-2-one], in the series with MC38 murine colon cancer (setting [4]), the “CR: No. of Complete Regressions” value is given as 0. Also, the “PR: No. of Partial Regressions” value in the series with MC38 murine colon cancer (setting [4]) is 0. The “TFS: No. of Tumor Free Survivors” value in the series with MC38 murine colon cancer (setting [4]) turned out to be 0. Besides, the “TGI Day 28 (tumor growth inhibition)” value in the series on MC38 murine colon cancer (female C57BL/6 mice, MC38 s.c., RX-3117 60 mg/kg po (5/2) x 3, anti-PD-1 RMP1-14 100 μg/animal ip biwk x 2, 60 mg/kg) worked out at 80%. Besides, the “increase of intravenous Cmax over the peak concentrations of the oral doses” value in series [1] (20 mg intravenous vs 50 and 100 mg oral) is reported as approximately 4 fold. Further, the Cmax in series [1] (single intravenous dose 20 mg) turned out to be 1140 ng/mL; in series [1] (single oral dose 50 mg) it was 303 ng/mL; in series [1] (single oral dose 100 mg), 311 ng/mL. The Tmax in series [1] (single intravenous dose 20 mg, read-out: Tmax) amounted to 0.25 h; in series [1] (single oral dose 50 mg, read-out: mean Tmax), 2.16 h; in series [1] (single oral dose 100 mg, read-out: mean Tmax) it was 2.49 h. Besides, the results for the half-life in series [1] (single oral dose 50 mg) and in series [1] (single oral dose 100 mg) were 13.9 h and 20.9 h, respectively. The bioavailability in series [1] (single oral dose 50 mg) was 55.7%; in series [1] (single oral dose 100 mg) it was 33.4%. Besides, the “adverse events (AE, TEAE, SAE)” value in series [1] (single 50 or 100 mg oral or 20 mg intravenous dose) is on record as “No adverse event”. Moreover, the safety and tolerability entry in series [1] (single 50 or 100 mg oral or 20 mg intravenous dose, all subjects) was “safe and well-tolerated”. Moreover, the “DNMT1 mRNA” value with DNMT1 mRNA (A549 and SW1573, 24 hours exposure) is recorded as “not affected”; with DNMT1 mRNA (A549 and SW1573, 48 hr) it was “affected moderately”. In addition, the “decrease of overall methylation of DNA” value in series [2] stood at 25%. The dose modifying factors in series [3] was 1.4-1.8.

By Cmax is commonly meant the maximum level reached in the sampled fluid or tissue. For orientation: Tmax means the time from dosing to the highest level. As a reminder, the half-life is the time needed for the level to fall by half in the phase considered. Usually bioavailability stands for the share of a dose that reaches the circulation, judged against a reference dose that is usually intravenous.
